Consider two molecules from patent publication US12551436B2, “Dosing regimens for treatment of proliferative disorders” (priority 2018, dated 2026).

Values joined by “and” are separate entries in the source; they are usually repeats but may differ in a detail not shown here. Equal values may be shown once. Read-outs that look alike come from different tables or passages of the source.

This data set is described as follows: Pharmacokinetics of curcumin and THC in plasma during and after liposomal curcumin infusion. The following applies: for AUC(0-t): read-out: AUC0-Tlast. It counts as in vivo, human. The method, then: Patient #21 was excluded from the PK analysis because the infusion was interrupted for 1.5 h.
Pharmacokinetic assessments. […] Samples for infusion #1 were collected at baseline (BL), 2 h after start of infusion and after end of infusion at 0 min=EOI, 10 min, 20 min, 30 min, 45 min, 60 min and 120 min and at EOI for infusions #2, #3, #5 and #8. […] The number of blood collections remained unchanged.

The mark [1] stands for this setting: plasma THC, first liposomal curcumin infusion, DL 3: 150 mg/m^2, 8 h infusion, patient 17.
[2] abbreviates: plasma THC, first liposomal curcumin infusion, DL 4: 190 mg/m^2, 8 h infusion, Mean, patient #19 not included.
[3] abbreviates: plasma THC, first liposomal curcumin infusion, DL 4: 190 mg/m^2, 8 h infusion, individual patients.
Where [4] appears, read: plasma THC, first liposomal curcumin infusion, DL 6: 300 mg/m^2, 8 h infusion, Mean.
Where [5] appears, read: plasma THC, first liposomal curcumin infusion, DL 6a: 300 mg/m^2, 6 h infusion, Mean.
Where [6] appears, read: plasma THC, first liposomal curcumin infusion, DL 6a: 300 mg/m^2, 6 h infusion, individual patients.

As a reminder, the Cmax is the highest concentration seen after dosing. What is called Tmax is the time from dosing to the highest level. Consider `COc1cc(/C=C/C(=O)CC(=O)/C=C/c2ccc(O)c(OC)c2)ccc1O` [Curcumin, (1E6E)-1,7-bis(4 hydroxy-3-methoxyphenyl)-1,6-heptadiene-3,5 dione], for which the Cmax (human, in vivo, 240 mg/m^2, plasma curcumin, first liposomal curcumin infusion, DL 5: 240 mg/m^2 8 h infusion, Mean, read-out: Cmax) amounted to 647 ng/mL. Besides, the Tmax (human, in vivo, mean Tmax for curcumin) lay within 3.6 to 4 h.

For `COc1cc(CCC(=O)CC(=O)CCc2ccc(O)c(OC)c2)ccc1O` [tetrahydrocurcumin], the plasma samples entry (DL 1-DL 3 (100 to 150 mg/m^2), patients with only one blood collection during infusion, most samples) was “below the limit of quantification”. Moreover, the AUC(0-t) came out at 59 ng·h/mL (human, in vivo, 150 mg/m^2, plasma THC, first liposomal curcumin infusion, DL 3: 150 mg/m^2, 8 h infusion, patient 17); 27 ng·h/mL (human, in vivo, 190 mg/m^2, plasma THC, first liposomal curcumin infusion, DL 4: 190 mg/m^2, 8 h infusion, Mean, patient #19 not included); 344 ng·h/mL (human, in vivo, 300 mg/m^2, plasma THC, first liposomal curcumin infusion, DL 6: 300 mg/m^2, 8 h infusion, Mean); 326 ng·h/mL (human, in vivo, 300 mg/m^2, plasma THC, first liposomal curcumin infusion, DL 6a: 300 mg/m^2, 6 h infusion, Mean). In addition, the Cmax by setting is: (human, in vivo, 150 mg/m^2, plasma THC, first liposomal curcumin infusion, DL 3: 150 mg/m^2, 8 h infusion, patient 17, read-out: Cmax) 16.1 ng/mL; (human, in vivo, 190 mg/m^2, plasma THC, first liposomal curcumin infusion, DL 4: 190 mg/m^2, 8 h infusion, Mean, patient #19 not included, read-out: Cmax) 7.2 ng/mL; (human, in vivo, 300 mg/m^2, plasma THC, first liposomal curcumin infusion, DL 6: 300 mg/m^2, 8 h infusion, Mean, read-out: Cmax) 74.4 ng/mL; (human, in vivo, 300 mg/m^2, plasma THC, first liposomal curcumin infusion, DL 6a: 300 mg/m^2, 6 h infusion, Mean, read-out: Cmax) 70.3 ng/mL; under setting [3], 7.7 ng/mL and 396.1 ng/mL and 6.6 ng/mL; under setting [6], 110.4 ng/mL and 35.1 ng/mL and 80.1 ng/mL and 67.6 ng/mL and 70.7 ng/mL and 58.3 ng/mL. For the same molecule, the Tmax reads like this: (human, in vivo, 150 mg/m^2, plasma THC, first liposomal curcumin infusion, DL 3: 150 mg/m^2, 8 h infusion, patient 17, read-out: Tmax) 4 h; (human, in vivo, 190 mg/m^2, plasma THC, first liposomal curcumin infusion, DL 4: 190 mg/m^2, 8 h infusion, Mean, patient #19 not included, read-out: Tmax) 5 h; (human, in vivo, 300 mg/m^2, plasma THC, first liposomal curcumin infusion, DL 6: 300 mg/m^2, 8 h infusion, Mean, read-out: Tmax) 2.5 h; (human, in vivo, 300 mg/m^2, plasma THC, first liposomal curcumin infusion, DL 6a: 300 mg/m^2, 6 h infusion, Mean, read-out: Tmax) 3.7 h; under setting [3], 8.1 h and 6.0 h; under setting [6], 2.0 h and 5.9 h and 5.8 h. The “AUC0-TLast of THC as percentage of curcumin” value runs as follows: (mean across individual patients) 8.5%; (range across individual patients) 2.1%-21.8%. The Clast reads like this: under setting [1], 10.3 ng/mL; under setting [2], 7.2 ng/mL; under setting [3], 7.7 ng/mL and 11.8 ng/mL and 6.6 ng/mL; under setting [4], 21.8 ng/mL; under setting [5], 6.2 ng/mL; under setting [6], 6.9 ng/mL and 5.2 ng/mL (2×) and 6.0 ng/mL and 8.4 ng/mL and 5.7 ng/mL. Also, the Tlast under setting [1] is 6.0 h; the Tlast under setting [2] was 5.0 h; the Tlast under setting [3] is 4.0 h and 8.8 h and 6.0 h; the Tlast under setting [4] is recorded as 7.7 h; the Tlast under setting [5] is listed as 6.6 h; the Tlast under setting [6] is 6.8 h (2×) and 7.3 h and 6.0 h and 6.6 h and 6.2 h. Moreover, the AUC0-Tlast by setting is: under setting [3], 22 ng·h/mL and 1656 ng·h/mL and 31 ng·h/mL; under setting [6], 497 ng·h/mL and 155 ng·h/mL and 385 ng·h/mL and 332 ng·h/mL and 321 ng·h/mL and 264 ng·h/mL.
